Test results as given in PMC8704661, “A Structural Approach to Anti-Virulence: A Discovery Pipeline” (Microorganisms, 2021).
Entries after “also recorded” stand apart in the source; their conditions may differ.

Tests used:
Plx2A [1] = molecular target: T1, Plx2A (Paenibacillus larvae, UniProt M9V3B7); conditions: cited from earlier work
[2] = test system: model insect cell culture; parameters: method as in PMID 34564612; conditions: cited from earlier work
Plx2A [3] = molecular target: T1, Plx2A; test: biochemical; type: binding
Plx2A [4] = molecular target: T1, Plx2A; test: biochemical
Escherichia coli = test system: Escherichia coli; parameters: method as in PMID 34740095; conditions: cited from earlier work
Staphylococcus aureus = test system: Staphylococcus aureus; parameters: method as in PMID 34740095; conditions: cited from earlier work
Pseudomonas aeruginosa = test system: Pseudomonas aeruginosa; parameters: method as in PMID 34740095; conditions: cited from earlier work
C3larvin = test system: C3larvin; parameters: method as in PMID 25477523; conditions: read-out: Ki (C3larvin mART enzymatic activity); cited from earlier work
Vis toxin = test system: Vis toxin; parameters: method as in PMID 26352925; conditions: cited from earlier work
C3bot1 = conditions: cited from earlier work
[5] = test system: P. larvae ERIC I-infected honey bee larva; parameters: method as in PMID 34564612; conditions: P. larvae ERIC I infection; cited from earlier work

Structure (SMILES): O=c1cc(-c2ccccc2)oc2cc(O)c(O)c(O)c12 [Baicalein, 5,6,7-trihydroxy-2-phenyl-4H-chromen-4-one]
- Inhibition of Plx2A GH activity (Plx2A [1]): strong inhibitors
- Protection of cultured insect cells from Plx2A intoxication [2]: not Baicalein

Structure (SMILES): COc1ccc(-c2cc(=O)c3c(O)cc(O)cc3o2)cc1 [Acacetin, 5,7-dihydroxy-2-(4-methoxyphenyl)-4H-chromen-4-one]
- Inhibition of Plx2A GH activity (Plx2A [1]): strong inhibitors
- Concentration that protected the cell culture against Plx2A cytotoxicity (prevented bi-nucleated cells) [2]: 30 µM
- Protection of cultured insect cells from Plx2A intoxication [2]: protected the cultured cells from Plx2A intoxication

Structure (SMILES): COc1cc(-c2cc(=O)c3c(O)c(OC)c(O)cc3o2)ccc1O [Jaceosidin, 5,7-dihydroxy-2-(4-hydroxy-3-methoxyphenyl)-6-methoxy-4H-chromen-4-one]
- Kd (Plx2A [3]): 24.1 ± 2.9 µM
- IC50 (Plx2A [4]): 73.9 ± 4.7 µM

Structure (SMILES): O=c1c(O)c(-c2ccc(O)c(O)c2)oc2cc(O)cc(O)c12 [Quercetin, 2-(3,4-dihydroxyphenyl)-3,5,7-trihydroxy-4H-chromen-4-one]
- Kd (Plx2A [3]): 19.9 ± 0.4 µM
- IC50 (Plx2A [4]): 24.3 ± 0.8 µM
- Ki (Plx2A [4]): 18 ± 2.8 µM
- Mechanism of inhibition of Plx2A GH activity (Lineweaver-Burk) (Plx2A [4]): non-competitive inhibition; also recorded: non-competitive mechanism
- Antibacterial activity (Escherichia coli): potent antibacterial activity
- Antibacterial activity (Staphylococcus aureus): potent antibacterial activity
- Antibacterial activity (Pseudomonas aeruginosa): potent antibacterial activity

Structure (SMILES): O=c1c(O)c(-c2ccc(O)cc2O)oc2cc(O)cc(O)c12 [Morin, 2-(2,4-dihydroxyphenyl)-3,5,7-trihydroxy-4H-chromen-4-one]
- Kd (Plx2A [3]): 32.8 ± 11.7 µM
- IC50 (Plx2A [4]): 109 ± 4.8 µM

Structure (SMILES): O=c1cc(-c2ccccc2)oc2cc(O)cc(O)c12 [Chrysin, 5,7-dihydroxy-2-phenyl-4H-chromen-4-one]
- Kd (Plx2A [3]): 40.6 ± 4.7 µM
- IC50 (Plx2A [4]): 49.2 ± 2.5 µM

Structure (SMILES): CS(=O)(=O)NC[C@@H]1CCCN(c2ncnc3[nH]ncc23)C1 [Inhibitor M3, N-{[(3R)-1-{1H-pyrazolo[3,4-d]pyrimidin-4-yl}piperidin-3-yl]methyl}methanesulfon amide]
- IC50 (Plx2A [4]): 216 ± 22.7 µM
- Inhibition of Plx2A GH activity (Plx2A [1]): potent inhibitor; also recorded: strong inhibitors
- Ki (C3larvin): 11 µM
- Inhibition of Vis toxin (Vis toxin): effective inhibitor
- Inhibition of C3bot1 (C3bot1): effective inhibitor
- Concentration that protected the cell culture against Plx2A cytotoxicity (prevented bi-nucleated cells) [2]: 300 µM
- Protection of cultured insect cells from Plx2A intoxication [2]: protected the cultured cells from Plx2A intoxication
- Protection of honey bee larva / reduction of larval mortality [5]: failed to protect honey bee larva

Structure (SMILES): O=c1c(O)c(-c2ccc(O)cc2)oc2cc(O)cc(O)c12 [Kaempferol, 3,5,7-trihydroxy-2-(4-hydroxyphenyl)-4H-chromen-4-one]
- Kd (Plx2A [3]): 37.3 ± 3.6 µM
- IC50 (Plx2A [4]): 79.9 ± 6 µM

Structure (SMILES): O=c1cc(-c2ccc(O)c(O)c2)oc2cc(O)cc(O)c12 [Luteolin, 2-(3,4-dihydroxyphenyl)-5,7-dihydroxy-4H-chromen-4-one]
- Kd (Plx2A [3]): 24 ± 1.5 µM
- IC50 (Plx2A [4]): 68.1 ± 1.8 µM
